Reference: patent publication US7291738B2 (dated 2007)

Compared with `Cc1ncccc1Oc1ccc(NC(=O)Nc2ccc3[nH]c4c(c3c2)CCN(C(=O)OC(C)(C)C)CC4)cn1`, `Cc1ncccc1Oc1ccc(NC(=O)Nc2ccc3[nH]c4c(c3c2)CCNCC4)cn1` is higher in melting point: 173 to 175 °C for the first, 205 to 207 °C for the second.

First: Cc1ncccc1Oc1ccc(NC(=O)N2CCc3c(n(C)c4ccccc34)CC2)cn1
Second: Cc1ncccc1Oc1ccc(NC(=O)NCCc2ccccc2)cn1
The melting point of the first is higher: 159 to 160 °C for the first, 136 to 138 °C for the second.
